Among the data in PubChem BioAssay AID179 (DTP/NCI, 2004) are EC50, IC50 and outcome values, retold here.

Values joined by “and” are separate entries in the source; they are usually repeats but may differ in a detail not shown here. Identical values can stand only once. Active and inactive are the calls of the source.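 The calls were made as follows: active = compounds giving half or more protection of infected cells from virus-caused growth loss, again on retest; inactive = the rest.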 Bounds are passed on as bounds.

This assay concerns CEM cells HIV-1 protection, formazan growth assay. As to the kind of experiment: NCI AIDS Antiviral Assay. Conditions: for IC50: measured here: growth of uninfected CEM cells. The procedure, abridged:
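CEM (human) cells, HIV-1 infected vs uninfected, 5-point dosing, formazan growth read-out. Retest threshold 50% protection.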

For the molecule `O=c1[nH]c2cc(C(F)(F)F)ccc2nc1Cc1ccccc1`, the EC50 (in general, the concentration giving half of the maximal effect) was > 200 µM and the IC50 (usually the midpoint of a concentration-inhibition curve) was > 200 µM.
Turning to `N#CC1(O)Cc2ccccc2C1`, the EC50 was > 200 µM and the IC50 was > 200 µM.
Take `CC(=O)Nc1ccc(/C=C2/NC(=S)N(/C=C3\C(=O)Oc4ccccc4C3=O)C2=O)cc1`: the EC50 was > 200 µM and the half-maximal inhibitory concentration (IC50) came to 155 µM.
In the same order, the values of `O=C1OCC(Cc2ccc3c(c2)OCO3)[C@H]1Cc1cccc(O)c1` (some centres undefined) are > 200 µM and 79.4 µM.
The corresponding values for `COc1ccc2c(c1)c1c(n2CCN(C)C)-c2cccc(OC)c2CC1` are > 200 µM and 11 µM.
Turning to `C[n+]1c2ccccc2cc2c(CNC(CCCN=C(N)N)C(=O)O)cccc21` (centres undefined), the outcome was inactive.
As to `O=C(Nc1ccccc1)c1cc2ccccc2oc1=O`, the EC50 is > 100 µM and the IC50 was > 100 µM.
Take `Fc1cccc(C2SCc3nc4ccccc4n32)c1` (centres undefined): the EC50 was > 209 µM and the IC50 is 20.9 µM.
The corresponding values for `NC(=S)N/N=C(/CCN1CCCC1)CC(C1=C(O)C2=CCCCC2OC1=O)c1ccccc1` (centres undefined) are > 135 µM and > 135 µM.
In the same order, the values of `CC(NC(=O)c1ccccc1SC(=O)CCC[n+]1ccccc1)C(N)=O` (centres undefined) are 2.24 µM and 19.1 µM.
In the same order, the values of `S=C1C(=Nc2ccccc2)N(c2ccccc2)/C(=N\c2cccc[n+]2Cc2ccccc2)N1c1ccccc1` are 15.5 µM and 27.5 µM.
With `NC(CSS(=O)(=O)O)=NCCCc1nc2ccccc2[nH]1`, the EC50 is > 200 µM and the concentration for half-maximal inhibition (IC50) was 45.7 µM.
On to `CN(C)c1ccc(/C(=N\N)c2ccccc2)cc1`, for which the EC50 is > 200 µM and the IC50 amounted to 112 µM.
The corresponding values for `O=C(/C=C/c1ccc2c(c1)OCO2)NCCc1ccco1` are > 200 µM and 126 µM.
In the same order, the values of `COc1c(C(=O)/C(=N/Nc2ccccc2)C(C)=O)c(O)c(OC)c2occc12` are > 200 µM and 38 µM.
In the same order, the values of `COc1cc([C@@H]2c3cc4c(c(O)c3C[C@H]3COC(=O)[C@@H]32)OCO4)cc(OC)c1OC` are > 0.02 µM and 0.00309 µM.
Turning to `CCOC(=O)c1sc(SC)nc1NC(=O)c1ccc([N+](=O)[O-])cc1`, the EC50 is > 200 µM and the IC50 was > 200 µM.
For the molecule `CCOC(=O)c1[nH]n(-c2ccccc2)c(=O)c1C=NC(=S)c1cccnc1`, the EC50 is > 200 µM and the IC50 worked out at 89.1 µM.
In the same order, the values of `Cc1c(C)c2c(c(N)c1C#N)C(=O)N(N)C2=O` are > 200 µM and 132 µM.
In the same order, the values of `CCC(=O)O[C@H](C)CC1SCCCS1` are > 214 µM and > 214 µM.
In the same order, the values of `CCCN1CCC(=O)N(CCC(F)(F)C(F)(F)C(F)(F)C(F)(F)C(F)(F)C(F)(F)F)C1=S` are > 50.1 µM and > 50.1 µM.
Take `CSC12c3cc(C)n(-c4ccccc4)c3CC(C)(C)CN1C(=O)C2Oc1ccccc1` (centres undefined): the EC50 was > 200 µM and the IC50 worked out at 16.2 µM.
In the same order, the values of `CN(C(=O)c1ccco1)C(=S)N1CCN(c2ccccn2)CC1` are > 398 µM and 209 µM.
Consider `O=C1/C(=C/c2ccccc2)Oc2cc(O)ccc21`, for which the EC50 is > 200 µM and the IC50 is 110 µM.
The corresponding values for `COc1cc(OC)c2c(=O)c3cccc(O)c3oc2c1` are > 200 µM and > 200 µM.
Regarding `CN(C)c1nn2c(-c3ccccc3)nnc2s1`, the outcome was inactive.
`CCCCCNC(=O)Sc1ccccc1C(=O)N[C@H](C)C(N)=O` returned an EC50 of 1 µM and an IC50 of 123 µM.
In the same order, the values of `BrCC[N+]12CC[N+](CCBr)(CC1)C2` are > 525 µM and 25.7 µM.
In the same order, the values of `Cc1ccc(/C=C2\CN(C)CC3C(c4ccc(C)cc4)=C(C#N)C(=O)NC23)cc1` (centres undefined) are > 200 µM and > 200 µM.
Consider `Cc1cccc2c(NCCCN(C)C)c3c([N+](=O)[O-])ccc(C)c3nc12`, for which the EC50 was > 2 µM and the IC50 is 0.162 µM.
Take `COc1ccc(/C=C2/C(=O)N(C(=O)c3ccccc3O)N=C2C)cc1`: the EC50 is > 56.2 µM and the IC50 came to 0.0501 µM.
Take `CCCCCCCCCCCc1c(O)c(O)cc2nc3cc(C(=O)NC(C(=O)O)C(C)C)ccc3nc12` (centres undefined): the EC50 is > 14.1 µM and the IC50 was > 14.1 µM.
Take `O=C(CCNC12CC3CC(CC(C3)C1)C2)c1ccccc1`: the result was inactive.
On to `Cn1nnn2c(-c3ccccc3)nnc12`, for which the EC50 is > 891 µM and the IC50 was > 891 µM.
Turning to `O=C1NNC2CCCCC2O1` (centres undefined), the EC50 is > 1150 µM and the IC50 was > 1150 µM.
With `O=C(c1cccs1)N(C(=O)N1CCC(c2ccccc2)CC1)c1ccccc1`, the EC50 is > 200 µM and the IC50 is > 200 µM.
For `O=C(NNC1=NCCN1)c1ccco1`, the EC50 is > 200 µM and the IC50 is > 200 µM.
Turning to `O=S(=O)(O)CCO`, the EC50 is > 200 µM and the IC50 was > 200 µM.
Consider `CCCCCCC(=O)C/C(CCC(=O)N(Cc1ccccc1)Cc1ccccc1)=N\Nc1ccc([N+](=O)[O-])cc1[N+](=O)[O-]`, for which the EC50 is > 12.3 µM and the IC50 is > 12.3 µM.
As to `Cc1cccc2c1OC(=O)C1CNCOC21` (centres undefined), the EC50 is > 200 µM and the IC50 worked out at 33.1 µM.
In the same order, the values of `O=C1C(Cl)=C(c2ccc(Cl)s2)C(=O)c2ccccc21` are > 42.7 µM and 7.59 µM.
In the same order, the values of `CN(C)c1ccc(/C=C(\C#N)c2cccc(I)c2)cc1` are > 2 µM and 0.129 µM.
Take `O=C(O)CCC1(Br)CCCCC(Br)C1=O` (centres undefined): the EC50 was > 724 µM and the IC50 was 245 µM.
In the same order, the values of `Cn1cnc([N+](=O)[O-])c1Sc1nc2cc(Cl)c(F)cc2[nH]1` are > 8.32 µM and 3.09 µM.
The corresponding values for `CCOC(=O)c1nc2cc(C(F)(F)F)ccc2nc1Oc1ccc(C(=O)OC)cc1` are > 200 µM and 95.5 µM.
The corresponding values for `Cc1ccsc1/C=N/Nc1nc2ccccc2s1` are > 200 µM and 105 µM.
On to `Cc1c([N+](=O)[O-])ccc2c1C(=O)c1ccccc1C2=O`, for which the EC50 is > 200 µM and the IC50 worked out at 28.2 µM.
The corresponding values for `O=C(/C=C/c1ccc(O)c(O)c1)c1cc(O)cc(O)c1` are > 200 µM and 15.1 µM.
Regarding `COc1ccc([N+](=O)[O-])c2c(NCCCN(C)C)ccnc12`, the EC50 is > 200 µM and the IC50 was determined as 4.47 µM.
The corresponding values for `Clc1cccc(-c2nc3cccc4c3n2Cc2ncccc2-4)c1` are > 200 µM and > 200 µM.
As to `ClC(Cl)[Si]12OCCN(CCO1)CCO2`, the outcome was inactive.
`CC(=O)Nc1ccc(SSc2ccc(NC(C)=O)c3cccnc23)c2ncccc12`: the EC50 is > 200 µM and the IC50 is 2.34 µM.
`COc1ccc(NC(=S)N/N=C\c2ccc(NC(C)=O)cc2)cc1`: the outcome was inactive.
As for `Nc1ccc(C(=O)NN2C(=O)C(Cl)C2c2ccccc2Cl)cc1` (centres undefined), the EC50 is > 200 µM and the IC50 stood at 3.31 µM.
As to `O=c1[nH]cnc2c1ncn2CCCCO`, the outcome was inactive.
On the same count and under the same terms, as for `Cc1nc2c(nc1C)C(=O)C(Cl)=CC2=O`, the entry is “inactive”.
On to `CN1C2CCC1CC(O)C2` (centres undefined), for which the EC50 was > 1780 µM and the IC50 was > 1780 µM.
For `O=S1(=O)CC2C1C1(c3ccccc3)OC2(c2ccccc2)c2ccccc21` (centres undefined), the EC50 is > 200 µM and the IC50 amounted to 20 µM.
The corresponding values for `C/C(CC(=O)CCC(=O)Nc1cccc(C(F)(F)F)c1)=N\NC(=O)NN` are > 10 µM and > 10 µM.
For `O=C(CC(=O)Nc1ccccc1)NNC(Sc1ccccc1)c1cc(N=Nc2ccc(Br)cc2)ccc1O` (centres undefined), the outcome was inactive.
`C[N+](C)(C)CCOP(=O)(O)OP(=O)([O-])OCC1CCC(n2ccc(N)nc2=O)O1` (centres undefined): the EC50 is 0.575 µM and 0.178 µM; the IC50 was > 200 µM.
As for `C[C@]12CCC(=O)C=C1CC[C@H]1[C@@H]3CC[C@@]4(OCC4=O)[C@@]3(C)C[C@H](O)[C@@]12F`, the EC50 is > 123 µM and the IC50 was > 123 µM.
Consider `CC(C)(C)C(=O)C(C(=O)C(C)(C)C)C(=O)C(C)(C)C`, for which the result was inactive.
On the same count and under the same terms, as for `COC(=O)c1c(C)cc2c(c1O)C1(O)C(=O)c3cc4c(c(O)c3C(=O)C1(OC)C(O)C2)C(=O)C=C(NC1OC(C)C(OC)C(O)C1OC)C4=O` (centres undefined), the entry is “inactive”.
`C=CC[N+](CC)(CC)Cc1ccc(C[N+](CC)(CC)CC=C)cc1`: the EC50 is > 513 µM and the IC50 was > 513 µM.
With `COC12OC3(C4OC41)C(C(=O)O[C@H]3CO)C2S(=O)(=O)c1ccccc1` (some centres undefined), the EC50 was > 200 µM and the half-inhibitory concentration (IC50) was > 200 µM.
Take `CC(=O)Oc1c(N2CCCCC2)c(C(=O)c2ccccc2)c(O)c2ccn(N(C)C)c12`: the EC50 was > 200 µM and the IC50 turned out to be 8.32 µM.
The corresponding values for `CCCCOC(=O)C(=O)C(CCC(=O)c1ccc(C)cc1)C(=O)C=C(C)C` (centres undefined) are > 69.2 µM and > 69.2 µM.
As for `O=C(/C=C(\N=P(c1ccccc1)(c1ccccc1)c1ccccc1)C(F)(F)C(F)(F)C(F)(F)C(F)(F)C(F)(F)C(F)(F)C(F)(F)F)c1ccccc1`, the EC50 was > 200 µM and the 50% inhibitory concentration (IC50) was > 200 µM.
For `O=P1(O)c2ccccc2Oc2ccccc21`, the EC50 is > 200 µM and the IC50 was > 200 µM.
For `[N-]=[N+]=Nc1ccccc1C(=O)N1C(=O)c2ccccc2C(=O)N(C(=O)c2ccccc2N=[N+]=[N-])c2ccccc21`, the EC50 is > 200 µM and the IC50 stood at 72.4 µM.
With `NCC1OC(OC2C(N)CC(N)C(O)C2O)C(NC(=O)c2ccccc2)C(O)C1O` (centres undefined), the result was inactive.
As to `CC(=O)N1C(Nc2nccs2)CCN1c1ccccc1` (centres undefined), the EC50 is > 200 µM and the IC50 is 26.9 µM.
The corresponding values for `Cc1cccnc1NC(=O)NCCCl` are > 200 µM and > 200 µM.
Take `NNc1nc2ccccc2c(=O)n1NC(=O)C(=O)Nc1cccc(C(F)(F)F)c1`: the EC50 is > 324 µM and the IC50 is > 324 µM.
